Columns and labels:
mature human osteoclasts = assay: osteoclast-mediated resorption of mineralized matrix; format: cell-based; settings: 1.1 μM and 10 μM, 48 hours
Experimental: The study was carried out following the method below: CD15+ monocytes (osteoclast precursor cells) were cultivated for 3 days in a proliferation medium (Igla α-modified minimum essential medium/fetal calf serum (aMEM/FCS), 10% with 25 ng/ml of macrophage colony-stimulating factor (M-CSF)). During this stage M-CSF promoted proliferation and expression of a receptor activator of nuclear factor KB (RANK, cappa-B, type I membrane protein). The proliferation medium was removed and cells were differentiated in a differentiation medium (aMEM/FCS-10% with 100 ng/ml of RANKL and 25 ng/ml of M-CSF). When mature osteoclasts were detected in the culture (day 4 of the study), the cells were collected and re-inoculated into a 96-well plate coated with a synthetic mineralized matrix. Cultivation continued for 48 hours (at presence of the studied compounds) to evaluate osteoclast resorption. Then number of mature osteoclasts and the resorption degree were evaluated. An effect of 4-methylbenzenesulfonic acid and Compound 1 salt concentration on concentration and resorption degree of mature osteoclasts was evaluated in comparison with control samples ([…] control, 0.3% DMSO solvent) and reference inhibitors, i.e., saracatinib and bosutinib (see FIG. 18).

[1] = tested on: Sprague-Dawley rat models of osteoarthritis induced by intra-articular introduction of sodium iodoacetate; assay: mechanical allodynia test with von Frey filaments in osteoarthritis induced by sodium iodoacetate; format: in vivo
Experimental: The intra-articular introduction of aerobic glycolysis inhibitor (sodium iodoacetate) results in death of chondrocytes and acute inflammatory reaction in a synovial cavity. In absence of treatment, at day 10 from the pathology induction an onset of chronic pain is observed due to cartilage destruction and development of chronic inflammation in particular cases [J Musculoskel Neuron Interact 2001; 1(4):363-376]. Extent of osteoarthritis development in rats was evaluated by comparison of extremity pain sensitivity threshold after the introduction of sodium iodoacetate versus background measurements taken before the pathology induction. The threshold of the pain sensitivity was evaluated by mechanical allodynia test using von Frey filaments (see Table 8).
For the purposes of the study, rat males weighing 150 to 200 g were selected. All the animals underwent acclimatization for 14 days. The animals were housed in a polycarbonate cages of 3H type manufactured by Charles River laboratories Inc according to COST R 53434-2009. 12-hours lighting regimen was maintained. The animals had access to food and water ad libitum. The pathology was induced by introduction of 50 μl solution containing 2 mg of sodium iodoacetate into a synovial cavity of the animal knee joints. Tactile allodynia induced by a mechanical irritation was evaluated using von Frey filaments weighing 0.06 to 23.96 g. The test was repeated five times for each filament at intervals of 1 to 2 s. The sensitivity threshold was considered as a minimum reaction threshold provoking paw withdrawal in one of five repeats.

[2] = pharmacokinetics in blood plasma after oral administration in Wistar rats; settings: rat, in vivo, 21 mg/kg
[3] = distribution across organs and tissues in rats; format: in vivo
Experimental: When the 4-methylbenzenesulfonic acid and Compound 1 salt hydrate is administered intragastrically at dosages 30 to 200 mg/kg, the Compound 1 concentration in rat blood plasma increases in proportion to the dose. High concentrations of the Compound 1 was found almost in all the tissues studied and reached maximum at 2 to 4 hours after 4-methylbenzenesulfonic acid and Compound 1 salt hydrate administration.

[4] = pharmacokinetics in blood plasma after oral administration in Wistar rats; settings: rat, in vivo
Experimental: At the first stage, pharmacokinetics of the Compound 1 free base was studied after oral administration in Wistar rats at dosage of 30 mg/kg.
Pharmacokinetics of several Compound 1 salt forms was studied after oral administration in Wistar rats at a dose of 37 mg/kg (30 mg/kg equivalent to a free base).

[5] = pharmacokinetics in rabbits at single administration; format: in vivo; settings: 50 mg/kg

Cmax [2]: 416 ng/mL
daily average concentration in bone and cartilage tissues versus daily average concentration in blood plasma ([3]; intragastric): more than three times
time of reaching maximum concentration in blood [4]: 1.1 to 1.3 h
elimination half-time [5]: more than 7 hours
Compound: COc1cc(Nc2ncnc(Nc3ccc4c(n3)NC(=O)C(C)(C)O4)n2)cc(OC)c1OC.Cc1ccc(S(=O)(=O)O)cc1.O [monohydrate of 4-methylbenzenesulfonic acid and 2,2-dimethyl-6-((4-((3,4,5-trimethoxyphenyl)amino)-1,3,5-triazine-2-yl)amino)-2H-pyrido[3,2-b][1,4]oxazine-3(4H)-one base]
effect on osteoclast-mediated resorption of the mineralized matrix (mature human osteoclasts): profound statistically significant inhibitory effect
Reaction threshold value, % of control ([1]; 100 mg/kg intragastric, days 0-28 (daily), day 14 from pathology induction): 106 % of control
Reaction threshold value, % of control ([1]; 100 mg/kg intragastric, days 0-28 (daily), day 21): 80 % of control
Reaction threshold value, % of control ([1]; 100 mg/kg intragastric, days 0-28 (daily), day 28): 106 % of control
Reaction threshold value, % of control ([1]; 100 mg/kg intragastric, days 7-28 (daily), day 14): 70 % of control
Reaction threshold value, % of control ([1]; 100 mg/kg intragastric, days 7-28 (daily), day 21): 75 % of control
Reaction threshold value, % of control ([1]; 100 mg/kg intragastric, days 7-28 (daily), day 28): 73 % of control
Reaction threshold value, % of control ([1]; 500 mg/kg intragastric, days 0-28 (daily), day 14): 114 % of control
Reaction threshold value, % of control ([1]; 500 mg/kg intragastric, days 0-28 (daily), day 21): 106 % of control
Reaction threshold value, % of control ([1]; 500 mg/kg intragastric, days 0-28 (daily), day 28): 107 % of control
Reaction threshold value, % of control ([1]; 500 mg/kg intragastric, days 7-28 (daily), day 14): 76 % of control
Reaction threshold value, % of control ([1]; 500 mg/kg intragastric, days 7-28 (daily), day 21): 91 % of control
Reaction threshold value, % of control ([1]; 500 mg/kg intragastric, days 7-28 (daily), day 28): 118 % of control
mechanical allodynia onset ([1]; 100 and 500 mg/kg from day of pathology induction, 500 mg/kg from the seventh day): Total arrest of mechanical allodynia onset
tissue with lowest concentration [3]: lowest concentration of the Compound 1 was registered in muscles
